Data set [1] deals with T1, amyloid (aggregated Aβ1-40) (Homo sapiens, UniProt P05067).
T1 construct: Aβ1-40 (Peptide Institute, INC.) was dissolved in phosphate buffer (pH 7.4); purchased Peptide Institute, INC
As to the kind of experiment: Measurement of binding to amyloid (radiolabelled compound, glass fiber filtration). As to conditions: amyloid 2.5-1000 nmol/L, 22° C., 3 hours. On the procedure:
(7) A relation between the amount of the Compound I-6 binding to amyloid and the amount of added amyloid was evaluated from the measurement results of (6). Unspecific binding was determined using a sample to which the Compound I-2 (non-RI labeled compound) was added to become 100 nM (at a final concentration) above in (4) (Example I-7).
(8) Using [^125I]-IMPY synthesized in the above Reference Example I-6, the same procedure as the above (2) to (6) were carried out to obtain control data (Comparative Example I-1).
A relation between the concentration of amyloid in the sample solution and the radioactive count on the glass fiber filter measured above in (6) is shown in FIG. 1-11. The radioactivity on the glass fiber was increased proportionally to the concentration (addition amount) of amyloid (Example I-7). […] Therefore, the radioactive count on the glass fiber is a value reflecting the amount of the compound attached to amyloid, and the slope of the graph which plotted the radioactive count relative to the concentration of amyloid is a value which can be an index representing the intensity of binding to amyloid.

The nature of data set [2]: Transferability into brain and clearance, Examples I-20 to I-21. As to conditions: rats, intravenous injection, Table 1-7. In kind it is in vivo, male Wistar rats. From the text:
Three animals were used for Experiment I-20 and Comparative Experiment I-9, and two animals were used for Experiment I-21 at the respective time points.

Data set [3] concerns the target T2, intracerebral amyloid (aggregated Aβ1-40 injected into amygdaloid nucleus) (Homo sapiens, UniProt P05067).
T2 construct: Aβ1-40 (Peptide Institute, INC.) was dissolved in phosphate buffer (pH 7.4); purchased Peptide Institute, INC
As to the kind of experiment: Confirmation of imaging of amyloid in brain (ex vivo autoradiogram), Example I-22. Set-up: species or system male Wistar rat. As to conditions: brain slice 60 minutes after tail vein injection.
Protocol: (§1) (1) Aβ1-40 (manufactured by Peptide Institute, INC.) was dissolved in phosphate buffer (pH 7.4) and shaken at 37° C. for 72 hours, to obtain 1 mg/mL of a suspension of aggregated Aβ (hereinafter referred to as amyloid suspension in this Example).
(§2) (2) 25 μL (corresponding to 25 μg) of the amyloid suspension was injected into an amygdaloid nucleus on one side of a male Wistar rat (7-week old). As a control, 25 μL of a phosphate buffered physiological saline solution (pH 7.4) was injected into an amygdaloid nucleus on the other side of the rat. The rats were examined 1 day after the injection of the amyloid suspension and the phosphate buffered physiological saline solution (pH 7.4).
(§3) This solution was injected into the rat through the tail vein (dosage: 0.5 mL, dosed radioactivity: 16 MBq equivalent).
(§4) (4) Brain was removed 60 minutes after the injection to prepare a brain slice of 10 μm in thickness with a microtome (type: CM3050S, manufactured by LEICA). The brain slice was exposed to an imaging plate for 20 hours, and then image analysis was carried out by use of a Bio-imaging Analyzer (type: BAS-2500; manufactured by FUJIFILM Corporation).

Data set [4] deals with intracerebral amyloid (aggregated Aβ1-40 injected into amygdaloid nucleus). The data set is described as above. Set-up: species or system male Wistar rat. As to conditions: brain slice 60 minutes after tail vein injection.
Protocol: as §1, §2, §3, §4
Data set [5] can be described thus: Transferability into brain and clearance (2), Example I-30. It is filed as in vivo, male Wistar rats. Particulars: rats, intravenous injection, Table 1-10.
Protocol: 0.05 mL each of these solutions was injected under thiopental anesthesia into the tail vein of respective Wistar rats (7-week old). The rats were sacrificed by bleeding from abdominal artery, and brains were removed and subjected to measurement of mass of brains and further subjected to measurement of radioactivity (hereinafter referred to as A in this Example) with a single channel analyzer (detector type: SP-20 manufactured by OHYO KOKEN KOGYO Co., Ltd.) 2, 5, 30 and 60 minutes after the injection. Also, radioactivity (hereinafter referred to as B in this Example) of the rest of the whole body was measured in the same manner as above. Using these measurement results, radioactive distribution per unit weight of brain (% ID/g) at the respective time points were calculated in accordance with the following formula (1-7).
Three animals were used for experiment at the respective time points.
Data set [6] addresses T3, intracerebral amyloid (aggregated Aβ1-42 injected into amygdaloid nucleus) (Homo sapiens, UniProt P05067).
T3 construct: Aβ1-42 (Wako) was dissolved in phosphate buffer (pH 7.4); purchased Wako
Put plainly: Confirmation of imaging of amyloid in brain (ex vivo autoradiogram), Example I-31. As to conditions: brain slice 60 minutes after tail vein injection. Set-up: species or system male Wistar rat.
Protocol: (§5) (1) Aβ1-42 (Wako) was dissolved in phosphate buffer (pH 7.4) and shaken at 37° C. for 72 hours, to obtain a 1 mg/mL suspension of aggregated Aβ (hereinafter referred to as amyloid suspension in this Example).
(§6) (2) 2.5 μL (corresponding to 25 μg) of the amyloid suspension was injected into an amygdaloid nucleus on one side of a male Wistar rat (7-week old). As a control, 2.5 μL of a phosphate buffered physiological saline solution (pH 7.4) was injected into an amygdaloid nucleus on the other side of the rat. The rats were examined 1 day after the injection of the amyloid suspension and the phosphate buffered physiological saline solution (pH 7.4).
(§7) This solution was injected under thiopental anesthesia into the rat through the tail vein (dosage: 0.5 mL, dosed radioactivity: 11-15 MBq equivalent).
as §4

Data set [7] deals with intracerebral amyloid (aggregated Aβ1-42 injected into amygdaloid nucleus). The data set is described as above. Set-up: species or system male Wistar rat.
Protocol: as §5, §6, §7, §4
A short description of data set [8]: Partition coefficient based on the octanol extraction method, Examples II-20 to II-21. Particulars: octanol / 10 mmol/L phosphate buffer (pH 7.4); Table 2-6. In kind it is physicochemical.
Protocol: To 2 mL of octanol, 10 μL each of the prepared sample solution was added, and 2 mL of 10 mmol/L phosphate buffer (pH 7.4) was further added, followed by stirring for 30 seconds. After the mixture was centrifuged with a low-speed centrifuge (2000 rpm×60 min.), the octanol layer and the water layer were sampled each in an amount of 1 mL, and subjected to measurement of radioactivity count with an autowell gamma system (Type: ARC-301B, manufactured by Aloka). Using the obtained radioactivity count, log Poctanol was calculated in accordance with the equation (2-4).
The nature of data set [9]: Transferability into brain and clearance, Examples II-22 to II-23. In kind it is in vivo, male Wistar rats. Particulars: rats, intravenous injection, Table 2-7.
Protocol: 0.05 mL each of the prepared sample solutions was injected under thiopental anesthesia into the tail vein of the respective Wistar rat (7-week old). The rats were sacrificed by bleeding from abdominal artery, and brains were removed and subjected to measurement of mass of brains and further subjected to measurement of radioactivity (hereinafter referred to as A in this Example) with a single channel analyzer (detector type SP-20 manufactured by OHYO KOKEN KOGYO Co., Ltd.) 2, 5, 30, and 60 minutes after the injection. Further, the radioactivity level of the rest of the whole body was measured in the same manner as above (hereinafter referred to as B in this Example). Using these measurement results, radioactive distribution per unit weight of brain (% ID/g) at the respective time points were calculated in accordance with the following formula (2-5).
Three animals were used for the experiment at the respective time points.
Data set [10] deals with T3, intracerebral amyloid (aggregated Aβ1-42 injected into amygdaloid nucleus). Put plainly: Confirmation of imaging of amyloid in brain (ex vivo autoradiogram), Examples II-24 to II-25. Set-up: species or system male Wistar rat. Particulars: brain slice 60 minutes after tail vein injection.
Protocol: as §6, §7, §4
The subject of data set [11] is intracerebral amyloid (aggregated Aβ1-42 injected into amygdaloid nucleus). The data set is described as above. Set-up: species or system male Wistar rat. Particulars: for accumulation of radioactivity at sites other than the site to which amyloid was injected: autoradiogram, 60 minutes after tail vein injection; for accumulation of radioactivity in amygdaloid nucleus on the side to which the physiological saline solution was injected: brain slice 60 minutes after tail vein injection.
Protocol: as §6, §7, §4

A short description of data set [12]: Partition coefficient based on HPLC. In kind it is physicochemical. Particulars: 50 mM triethylamine phosphate (pH 7.2)/acetonitrile=40/60; log PHPLC=0.96(log10K′HPLC)+1.59. On the procedure:
The partition coefficient by HPLC (hereinafter referred to as log PHPLC) was measured by the following method.
First, compounds for evaluation shown in Table 1-5 were dissolved at a concentration of 1 mg/mL in methanol containing 10% dimethylsulfoxide to prepare sample solutions. One μL of the sample solution was subjected to HPLC analysis under the following conditions to determine the elution time (t0) of the solvent and the elution time (tR) of each compound. […]
Using the obtained t0 and tR, the retention factor (hereinafter referred to as K′HPLC value) of each compound for evaluation was determined according to the following calculation formula (1-3). […]
After the individual solutions were stirred for 30 seconds, the solutions were centrifuged at 2,000 rpm for 60 minutes. 1 mL each of the octanol phase and the water phase was fractionated, and the radioactivity was measured by an autowell gamma system (manufactured by Aloka Co., Ltd.: Type ARC-301B). Based on the obtained radioactivity, log Poctanol values were calculated according to the above equation (1-2). […]
Using K′HPLC obtained for each compound for evaluation, the log PHPLC value of each compound for evaluation was determined according to the above calculation formula (1-4).

For data set [13] the following is noted: International Publication WO03/106439 pamphlet; cited from earlier work.
For data set [14] the following is noted: rats, [11C]-labeled; cited from earlier work.

SMILES strings stand for the structures.

T3 sequence (P05067 672-713): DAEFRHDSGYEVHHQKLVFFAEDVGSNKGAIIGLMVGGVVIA
T2 sequence (P05067 672-711): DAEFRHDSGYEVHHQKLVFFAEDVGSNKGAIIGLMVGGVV
T1 sequence (P05067 672-711 limits assumed): as the sequence (P05067 672-711) above

In the case of `FCCCOc1ccc(-c2cn3cc([125I])ccc3n2)cc1` [Compound I-6, 2-[4′-(3″-fluoropropoxy)phenyl]-6-[^125I]iodoimidazo[1,2-a]pyridine], the “slope of radioactive count on the glass fiber relative to the concentration of amyloid (index of intensity of binding to amyloid)” value in data set [1] was “greater than the slope for [^125I]-IMPY”.

Regarding `FCCCOc1ccc(-c2cn3cc([123I])ccc3n2)cc1` [Compound I-7, 2-[4′-(3″-fluoropropoxy)phenyl]-6-[^123I]iodoimidazo[1,2-a]pyridine], the “Radioactive distribution in brain per unit weight, After 2 min.” value in [2] (2 min.) is given as 1.10 % ID/g. Also, the “Radioactive distribution in brain per unit weight, After 5 min.” value in [2] (5 min.) is listed as 0.75 % ID/g. Also, the “Radioactive distribution in brain per unit weight, After 30 min.” value in [2] (30 min.) is 0.12 % ID/g. Also, in [2] (60 min.), the “Radioactive distribution in brain per unit weight, After 60 min.” value is given as 0.05 % ID/g. The “accumulation of radioactivity in amygdaloid nucleus on the side to which the amyloid suspension was injected” value in data set [3] was “marked accumulation of radioactivity”. Also, the “accumulation of radioactivity in amygdaloid nucleus on the side to which the physiological saline solution was injected” value in data set [4] is reported as “no significant accumulation of radioactivity”.

In the case of `FCCOc1ccc(-c2cn3cc([123I])ccc3n2)cc1` [Compound I-9, 2-[4′-(2″-fluoroethoxy)phenyl]-6-[^123I]iodoimidazo[1,2-a]pyridine], the “Radioactive distribution in brain per unit weight, After 2 min.” value in [5] (2 min.) stood at 0.72 % ID/g. The “Radioactive distribution in brain per unit weight, After 5 min.” value in data set [5] (5 min.) amounted to 0.49 % ID/g. In [5] (30 min.), the “Radioactive distribution in brain per unit weight, After 30 min.” value was determined as 0.07 % ID/g. The “Radioactive distribution in brain per unit weight, After 60 min.” value in data set [5] (60 min.) was determined as 0.02 % ID/g. In addition, the “accumulation of radioactivity in amygdaloid nucleus on the side to which the amyloid suspension was injected” value in data set [6] was “marked accumulation of radioactivity”. Moreover, the “accumulation of radioactivity at sites other than the sites to which amyloid was injected” value in [7] (autoradiogram, 60 minutes after tail vein injection) was “little accumulation of radioactivity”. Besides, the “accumulation of radioactivity in amygdaloid nucleus on the side to which the physiological saline solution was injected” value in [7] (brain slice 60 minutes after tail vein injection) is reported as “no significant accumulation of radioactivity”.

As to `OCCOc1cccc(-c2cn3cc([123I])ccc3n2)c1` [Compound II-4, 2-[3′-(2″-hydroxyethoxy)phenyl]-6-[^123I]iodoimidazo[1,2-a]pyridine], in data set [8], the logPoctanol value is 2.5. For the same compound, in data set [9], the “Radioactive distribution in brain per unit weight, After 2 min.” value was determined as 0.56 % ID/g; the “Radioactive distribution in brain per unit weight, After 5 min.” value stood at 0.28 % ID/g; the “Radioactive distribution in brain per unit weight, After 30 min.” value is 0.04 % ID/g; the “Radioactive distribution in brain per unit weight, After 60 min.” value was found to be 0.01 % ID/g. In data set [10], the “accumulation of radioactivity in amygdaloid nucleus on the side to which the amyloid suspension was injected” value is recorded as “marked accumulation of radioactivity”. Moreover, in data set [11], the “accumulation of radioactivity at sites other than the site to which amyloid was injected” value was “little accumulation of radioactivity” and the “accumulation of radioactivity in amygdaloid nucleus on the side to which the physiological saline solution was injected” value was “no significant accumulation of radioactivity”.

In the case of `OCCCOc1ccc(-c2cn3cc([123I])ccc3n2)cc1` [Compound II-6, 2-[4′-(3″-hydroxypropoxy)phenyl]-6-[^123I]iodoimidazo[1,2-a]pyridine], the logPoctanol value in data set [8] is recorded as 2.1. Further, in data set [9], the “Radioactive distribution in brain per unit weight, After 2 min.” value is reported as 0.81 % ID/g; the “Radioactive distribution in brain per unit weight, After 5 min.” value stood at 0.56 % ID/g; the “Radioactive distribution in brain per unit weight, After 30 min.” value is given as 0.07 % ID/g; the “Radioactive distribution in brain per unit weight, After 60 min.” value worked out at 0.02 % ID/g. The “accumulation of radioactivity in amygdaloid nucleus on the side to which the amyloid suspension was injected” value in data set [10] was “marked accumulation of radioactivity”. Besides, in [11], the “accumulation of radioactivity at sites other than the site to which amyloid was injected” value is recorded as “little accumulation of radioactivity” and the “accumulation of radioactivity in amygdaloid nucleus on the side to which the physiological saline solution was injected” value is listed as “no significant accumulation of radioactivity”.

Turning to `CN(C)c1ccc(-c2cn3cc(I)ccc3n2)cc1` [IMPY, 6-iodo-2-[4′-(N,N-dimethylamino)phenyl]imidazo[1,2-a]pyridine], the logPHPLC value in [12] is 2.1. Also, the “reverse mutation test result” value in [13] is “positive”.

On to `CNc1ccc(/C=C/c2ccc(O)cc2)cc1` [SB-13, (E)-4-methylamino-4′-hydroxystilbene], for which, in data set [14], the “clearance from normal tissues” value is reported as “it cannot be said that the clearance is sufficiently fast”.

The record behind these values is US8506930B2, “Compounds having affinity for amyloid” (Nihon Medi-Physics Co., Ltd., priority 2006, dated 2013).
